Reference: US4140770A, “Benzoylethers and processes for their production” (A. Nattermann & Cie. GmbH, priority 1976, dated 1979)
≈ marks a conversion by molar mass, not a printed value.

How the values were obtained:
[1] = system: intestine of the guinea pig (BaCl2-spasmus); experiment: Spasmolytic effect, MAGNUS intestine of the guinea pig (against BaCl2-spasmus); details: Cavia porcellus, read-out: ED50 spasmolytic effect
Description: 2.1 MAGNUS intestine of the guinea pig (against BaCl2 -spasmus)

[2] = Acute toxicity (LD50 mouse); details: in vivo
BaCl2-spasmus = experiment: Spasmolysis in situ of a guinea pig modified according to BROCK (against BaCl2-spasmus); format: in vivo
Description: 2.2 Spasmolysis in situ of a guinea pig modified according to BROCK (against BaCl2 -spasmus)

A.femoralis = experiment: Increase in peripheral vasodilation (A.femoralis), narcotized dog, planimetric evaluation; format: in vivo
Description: 3.2 Increase in peripheral vasodilation (A.femoralis) in the case of the narcotized dog (with planimetric evaluation taking into account the duration of the effect).

Effect on blood pressure = format: in vivo
mouse = details: according to KOMLOS and PETOCZ (1970); cited from earlier work
rat = details: according to KOMLOS and PETOCZ (1970), cited from earlier work
coronary = experiment: Increase in coronary vasodilation (Bretschneider catheter), narcotized dog, planimetric evaluation; format: in vivo
Description: 3.3. Increase in coronary vasodilation (Bretschneider catheter) in the case of a narcotized dog (with planimetric evaluation taking into account the duration of the effect).

[3] = Acute toxicity (LD50 rat); details: in vivo, iv
Description: +according to KOMLOS and PETOCZ, 20 Arzneimittel-Forschung 1338 (1970)

Structure (SMILES) | IC50 [1] [µg/mL] | LD50 ([2]; iv, read-out: LD50 mouse i.v.) [mg/kg] | LD50 ([2]; po, read-out: LD50 mouse p.o.) [mg/kg] | inhibition (spasmolysis in situ) (BaCl2-spasmus; 5.6 mg/kg i.v.) [%] | inhibition (spasmolysis in situ) (BaCl2-spasmus; 10.0 mg/kg i.v.) [%] | inhibition (spasmolysis in situ) (BaCl2-spasmus; 17.8 mg/kg i.v.) [%] | Increase in peripheral vasodilation (A.femoralis) (A.femoralis; 3.16 mg/kg i.v.) | Increase in peripheral vasodilation (A.femoralis) (A.femoralis; 5.6 mg/kg i.v.) | Increase in peripheral vasodilation (A.femoralis) (A.femoralis; 10.0 mg/kg i.v.) | Effect on blood pressure (Effect on blood pressure; 3.16 mg/kg i.v.) | Effect on blood pressure (Effect on blood pressure; 5.6 mg/kg i.v.) | Effect on blood pressure (Effect on blood pressure; 10.0 mg/kg i.v.) | Increase in coronary vasodilation (coronary; 5.6 mg/kg i.v.) | further results
Cc1cc(C(=O)CC(c2ccccc2)c2ccccc2)cc(C)c1OCCN(C(C)C)C(C)C [BC 79, 4-[2-(N,N-diisopropylamino)-ethoxy]-3,5-dimethyl-β,β-diphenylpropiophenone] | 0.28 (≈ 0.612 µM) |  |  |  |  |  |  |  |  |  |  |  |  | 
CC[N+](C)(CC)CCOc1c(C)cc(C(=O)CC(c2ccccc2)c2ccccc2)cc1C [BC 96 a] |  | 7.93 | 1280 |  |  |  |  |  |  |  |  |  |  | 
CC[N+](CC)(CCOc1c(C)cc(C(=O)CC(c2ccccc2)c2ccccc2)cc1C)Cc1ccccc1 [BC 96 c] |  | 10 to 12 | ~2000 |  |  |  |  |  |  |  |  |  |  | 
Cc1cc(C(=O)CC(c2ccccc2)c2ccccc2)cc(C)c1OCCN(C)C [BC 77, 4-[2-(N,N-dimethylamino)-ethoxy]-3,5-dimethyl-β,β-diphenylpropiophenone] | 0.79 (≈ 1.97 µM) |  |  |  |  |  |  |  |  |  |  |  |  | 
COc1ccc(Cc2nccc3cc(OC)c(OC)cc23)cc1OC [Papaverine, reference compound] | 0.79 (≈ 2.33 µM) | 44 |  | 5 | 8 | 57 | approx. 100 ml × min | approx. 250 ml × min | approx. 180 ml × min | approx. 25 mm Hg | approx. 35 mm Hg | approx. 40 mm Hg | approx. 75 ml × min | LD50 mouse p.o. (mouse): 343 mg/kg; LD50 rat i.v. (rat; i.v.): 18 mg/kg; LD50 rat p.o. (rat; p.o.): 325 mg/kg
CCN(CC)CCOc1c(C)cc(C(=O)CC(c2ccccc2)c2ccccc2)cc1C [BC 58, 4-[2-(N,N-diethylamino)-ethoxy]-3,5-dimethyl-β,β-diphenylpropiophenone] | 0.044 (≈ 0.102 µM) | 60 | 1900 | 55 | 67 | 88 | approx. 400 ml × min | approx. 800 ml × min | approx. 2,200 ml × min | approx. 30 mm Hg | approx. 30 mm Hg | approx. 40 mm Hg | approx. 680 ml × min | duration of the effect (peripheral vasodilation) (A.femoralis; versus papaverine, i.v.): longer duration of the effect; Increase in coronary vasodilation (coronary; 3.16 mg/kg i.v.): approx. 350 ml × min; LD50 [3]: 54 mg/kg
